Key:
Experiment in all cases: KINOMEscan scanMAX
Format in all cases: binding
Details in all cases: read-out: Percent Control
GSK3B = target: T1, GSK3B (Homo sapiens, UniProt P49841)
T1 construct: purchased Eurofins Discovery (DiscoverX KINOMEscan scanMAX)
Method: (§1) The kinome-wide binding assay was performed by Eurofins Discovery using the scanMAX screening platform. More information can be found on the Eurofins Discovery Web site.

FLT3-autoinhibited = target: T2, FLT3-autoinhibited (Homo sapiens, UniProt P36888)
T2 construct: purchased Eurofins Discovery (DiscoverX KINOMEscan scanMAX)
T2 sequence (P36888 564-993 limits assumed): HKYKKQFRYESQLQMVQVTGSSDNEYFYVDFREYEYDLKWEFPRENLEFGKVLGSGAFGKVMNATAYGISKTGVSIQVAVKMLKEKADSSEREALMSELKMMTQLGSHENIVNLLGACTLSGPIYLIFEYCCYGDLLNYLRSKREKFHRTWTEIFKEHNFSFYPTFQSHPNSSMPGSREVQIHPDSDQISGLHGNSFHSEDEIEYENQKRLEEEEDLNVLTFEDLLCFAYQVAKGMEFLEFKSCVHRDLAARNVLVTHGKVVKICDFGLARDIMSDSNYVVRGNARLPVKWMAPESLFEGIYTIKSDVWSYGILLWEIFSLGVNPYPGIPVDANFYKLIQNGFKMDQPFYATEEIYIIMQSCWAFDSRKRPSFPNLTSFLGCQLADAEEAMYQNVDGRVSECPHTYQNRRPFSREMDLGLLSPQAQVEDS
Method: as §1

BMPR2 = target: T3, BMPR2 (Homo sapiens, UniProt Q13873)
T3 construct: purchased Eurofins Discovery (DiscoverX KINOMEscan scanMAX)
Method: as §1

GRK4 = target: T4, GRK4 (Homo sapiens, UniProt P32298)
T4 construct: purchased Eurofins Discovery (DiscoverX KINOMEscan scanMAX)
Method: as §1

[1] = target: T5, TYK2(JH1domain-catalytic) (Homo sapiens, UniProt P29597)
T5 construct: TYK2(JH1domain-catalytic); purchased Eurofins Discovery (DiscoverX KINOMEscan scanMAX)
T5 sequence (P29597 871-1187 limits assumed): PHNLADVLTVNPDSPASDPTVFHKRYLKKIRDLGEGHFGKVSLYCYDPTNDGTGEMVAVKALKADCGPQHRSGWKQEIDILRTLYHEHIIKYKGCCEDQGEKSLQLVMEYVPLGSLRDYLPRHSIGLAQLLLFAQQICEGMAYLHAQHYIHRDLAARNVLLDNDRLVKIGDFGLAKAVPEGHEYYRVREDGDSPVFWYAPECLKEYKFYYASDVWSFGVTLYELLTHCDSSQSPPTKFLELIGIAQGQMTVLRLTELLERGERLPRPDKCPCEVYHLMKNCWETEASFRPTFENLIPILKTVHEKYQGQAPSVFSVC
Method: as §1

[2] = target: T6, ABL1(F317I)-phosphorylated (Homo sapiens, UniProt P00519, F317I)
T6 construct: purchased Eurofins Discovery (DiscoverX KINOMEscan scanMAX)
Method: as §1

SIK2 = target: T7, SIK2 (Homo sapiens, UniProt Q9H0K1)
T7 construct: purchased Eurofins Discovery (DiscoverX KINOMEscan scanMAX)
T7 sequence (Q9H0K1 whole entry): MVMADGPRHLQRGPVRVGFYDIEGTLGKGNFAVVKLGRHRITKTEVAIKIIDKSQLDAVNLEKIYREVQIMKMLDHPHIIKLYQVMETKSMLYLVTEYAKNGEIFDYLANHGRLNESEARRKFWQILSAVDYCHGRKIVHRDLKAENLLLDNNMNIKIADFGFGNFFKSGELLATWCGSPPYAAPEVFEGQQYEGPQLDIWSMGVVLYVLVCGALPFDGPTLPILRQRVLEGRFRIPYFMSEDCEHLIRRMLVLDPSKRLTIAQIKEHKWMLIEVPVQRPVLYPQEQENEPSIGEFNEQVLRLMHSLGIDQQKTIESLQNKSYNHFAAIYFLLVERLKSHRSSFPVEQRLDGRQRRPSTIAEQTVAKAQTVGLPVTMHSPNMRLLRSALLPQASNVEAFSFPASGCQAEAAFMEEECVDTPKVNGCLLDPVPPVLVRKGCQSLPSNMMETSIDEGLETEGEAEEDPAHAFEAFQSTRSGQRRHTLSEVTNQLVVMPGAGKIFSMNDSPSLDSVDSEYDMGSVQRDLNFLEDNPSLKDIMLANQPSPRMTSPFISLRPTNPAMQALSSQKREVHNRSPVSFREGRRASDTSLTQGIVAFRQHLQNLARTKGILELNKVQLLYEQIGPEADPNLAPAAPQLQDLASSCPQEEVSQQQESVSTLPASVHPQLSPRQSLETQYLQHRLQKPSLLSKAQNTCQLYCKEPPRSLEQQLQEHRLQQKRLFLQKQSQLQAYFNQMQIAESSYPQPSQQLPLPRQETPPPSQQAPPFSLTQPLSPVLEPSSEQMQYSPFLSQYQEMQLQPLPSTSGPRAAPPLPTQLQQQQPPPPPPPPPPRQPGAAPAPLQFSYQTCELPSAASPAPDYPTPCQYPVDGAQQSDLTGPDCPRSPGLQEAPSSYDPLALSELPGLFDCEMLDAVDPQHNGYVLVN
Method: as §1

TNK1 = target: T8, TNK1 (Homo sapiens, UniProt Q13470)
T8 construct: purchased Eurofins Discovery (DiscoverX KINOMEscan scanMAX)
Method: as §1

WEE2 = target: T9, WEE2 (Homo sapiens, UniProt P0C1S8)
T9 construct: purchased Eurofins Discovery (DiscoverX KINOMEscan scanMAX)
Method: as §1

ERBB2 = target: T10, ERBB2 (Homo sapiens, UniProt P04626)
T10 construct: purchased Eurofins Discovery (DiscoverX KINOMEscan scanMAX)
Method: as §1

[3] = target: T11, RSK3(Kin.Dom.1-N-terminal) (Homo sapiens, UniProt Q15349)
T11 construct: RSK3(Kin.Dom.1-N-terminal); purchased Eurofins Discovery (DiscoverX KINOMEscan scanMAX)
T11 sequence (Q15349 1-388 limits assumed): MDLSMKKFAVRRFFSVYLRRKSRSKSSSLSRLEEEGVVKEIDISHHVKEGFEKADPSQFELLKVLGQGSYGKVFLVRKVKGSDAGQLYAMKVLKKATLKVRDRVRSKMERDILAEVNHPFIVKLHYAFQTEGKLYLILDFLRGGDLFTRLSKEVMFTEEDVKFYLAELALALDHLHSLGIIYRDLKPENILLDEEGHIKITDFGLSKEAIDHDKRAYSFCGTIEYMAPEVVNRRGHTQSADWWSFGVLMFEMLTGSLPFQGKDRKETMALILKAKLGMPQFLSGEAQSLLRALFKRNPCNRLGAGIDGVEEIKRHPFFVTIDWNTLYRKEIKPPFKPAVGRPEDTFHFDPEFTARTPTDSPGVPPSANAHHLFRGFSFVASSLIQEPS
Method: as §1

EGFR(L858R) = target: T12, EGFR(L858R) (Homo sapiens, UniProt P00533, L858R)
T12 construct: purchased Eurofins Discovery (DiscoverX KINOMEscan scanMAX)
Method: as §1

JNK2 = target: T13, JNK2 (Homo sapiens, UniProt P45984)
T13 construct: purchased Eurofins Discovery (DiscoverX KINOMEscan scanMAX)
Method: as §1

NIM1 = target: T14, NIM1 (Homo sapiens, UniProt Q8IY84)
T14 construct: purchased Eurofins Discovery (DiscoverX KINOMEscan scanMAX)
Method: as §1

[4] = target: T15, TYK2(JH2domain-pseudokinase) (Homo sapiens, UniProt P29597)
T15 construct: TYK2(JH2domain-pseudokinase); purchased Eurofins Discovery (DiscoverX KINOMEscan scanMAX)
Method: as §1

RIPK1 = target: T16, RIPK1 (Homo sapiens, UniProt Q13546)
T16 construct: purchased Eurofins Discovery (DiscoverX KINOMEscan scanMAX)
T16 sequence (Q13546 whole entry): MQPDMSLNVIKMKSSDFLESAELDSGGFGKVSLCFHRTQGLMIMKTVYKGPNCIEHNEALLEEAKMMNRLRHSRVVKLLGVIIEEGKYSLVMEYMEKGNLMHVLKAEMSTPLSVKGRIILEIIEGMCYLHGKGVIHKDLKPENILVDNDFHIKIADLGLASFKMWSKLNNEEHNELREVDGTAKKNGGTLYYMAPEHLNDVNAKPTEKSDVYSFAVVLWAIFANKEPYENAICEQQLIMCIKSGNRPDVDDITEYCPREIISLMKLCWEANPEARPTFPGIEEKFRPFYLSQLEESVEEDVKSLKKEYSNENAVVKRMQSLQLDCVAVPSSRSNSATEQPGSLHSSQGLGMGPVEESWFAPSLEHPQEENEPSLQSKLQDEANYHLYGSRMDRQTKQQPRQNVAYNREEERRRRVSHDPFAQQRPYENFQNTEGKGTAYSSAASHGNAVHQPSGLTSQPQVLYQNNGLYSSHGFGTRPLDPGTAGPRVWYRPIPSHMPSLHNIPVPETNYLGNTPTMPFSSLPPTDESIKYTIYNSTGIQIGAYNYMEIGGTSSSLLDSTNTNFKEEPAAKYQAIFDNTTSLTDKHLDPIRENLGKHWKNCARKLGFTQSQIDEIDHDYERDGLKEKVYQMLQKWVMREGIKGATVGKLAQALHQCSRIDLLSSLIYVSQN
Method: as §1

HIPK4 = target: T17, HIPK4 (Homo sapiens, UniProt Q8NE63)
T17 construct: purchased Eurofins Discovery (DiscoverX KINOMEscan scanMAX)
Method: as §1

PAK2 = target: T18, PAK2 (Homo sapiens, UniProt Q13177)
T18 construct: purchased Eurofins Discovery (DiscoverX KINOMEscan scanMAX)
Method: as §1

CDK5 = target: T19, CDK5 (Homo sapiens, UniProt Q00535)
T19 construct: purchased Eurofins Discovery (DiscoverX KINOMEscan scanMAX)
T19 sequence (Q00535 whole entry): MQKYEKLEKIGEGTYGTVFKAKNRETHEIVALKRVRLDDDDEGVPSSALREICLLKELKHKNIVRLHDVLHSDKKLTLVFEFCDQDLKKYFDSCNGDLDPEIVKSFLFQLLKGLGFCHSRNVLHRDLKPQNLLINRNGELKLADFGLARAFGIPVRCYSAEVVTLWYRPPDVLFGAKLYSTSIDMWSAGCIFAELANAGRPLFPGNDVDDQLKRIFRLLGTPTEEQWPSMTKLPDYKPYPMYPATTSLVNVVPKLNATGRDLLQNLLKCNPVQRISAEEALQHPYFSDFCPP
Method: as §1

p38-delta = target: T20, p38-delta (Homo sapiens, UniProt O15264)
T20 construct: purchased Eurofins Discovery (DiscoverX KINOMEscan scanMAX)
Method: as §1

FGFR3 = target: T21, FGFR3 (Homo sapiens, UniProt P22607)
T21 construct: purchased Eurofins Discovery (DiscoverX KINOMEscan scanMAX)
Method: as §1

EGFR(G719C) = target: T22, EGFR(G719C) (Homo sapiens, UniProt P00533, G719C)
T22 construct: purchased Eurofins Discovery (DiscoverX KINOMEscan scanMAX)
Method: as §1

LOK = target: T23, LOK (Homo sapiens, UniProt O94804)
T23 construct: purchased Eurofins Discovery (DiscoverX KINOMEscan scanMAX)
Method: as §1

EGFR(S752-I759del) = target: T24, EGFR(S752-I759del) (Homo sapiens, UniProt P00533, DEL752-759)
T24 construct: purchased Eurofins Discovery (DiscoverX KINOMEscan scanMAX)
T24 sequence (P00533 with tags, fused parts or gaps DEL752-759 limits assumed): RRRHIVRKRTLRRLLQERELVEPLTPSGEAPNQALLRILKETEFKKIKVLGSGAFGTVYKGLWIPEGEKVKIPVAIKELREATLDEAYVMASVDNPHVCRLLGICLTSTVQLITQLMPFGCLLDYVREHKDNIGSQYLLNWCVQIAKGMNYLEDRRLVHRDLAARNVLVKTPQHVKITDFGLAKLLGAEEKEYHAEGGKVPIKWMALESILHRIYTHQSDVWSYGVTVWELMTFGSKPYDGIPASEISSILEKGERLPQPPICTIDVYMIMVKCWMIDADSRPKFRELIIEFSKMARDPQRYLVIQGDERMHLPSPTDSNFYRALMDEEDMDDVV
Method: as §1

PRKD2 = target: T25, PRKD2 (Homo sapiens, UniProt Q9BZL6)
T25 construct: purchased Eurofins Discovery (DiscoverX KINOMEscan scanMAX)
Method: as §1

MERTK = target: T26, MERTK (Homo sapiens, UniProt Q12866)
T26 construct: purchased Eurofins Discovery (DiscoverX KINOMEscan scanMAX)
Method: as §1

[5] = target: T27, ABL1(E255K)-phosphorylated (Homo sapiens, UniProt P00519, E255K)
T27 construct: purchased Eurofins Discovery (DiscoverX KINOMEscan scanMAX)
Method: as §1

ROCK2 = target: T28, ROCK2 (Homo sapiens, UniProt O75116)
T28 construct: purchased Eurofins Discovery (DiscoverX KINOMEscan scanMAX)
Method: as §1

EGFR = target: T29, EGFR (Homo sapiens, UniProt P00533)
T29 construct: purchased Eurofins Discovery (DiscoverX KINOMEscan scanMAX)
T29 sequence (P00533 25-1210): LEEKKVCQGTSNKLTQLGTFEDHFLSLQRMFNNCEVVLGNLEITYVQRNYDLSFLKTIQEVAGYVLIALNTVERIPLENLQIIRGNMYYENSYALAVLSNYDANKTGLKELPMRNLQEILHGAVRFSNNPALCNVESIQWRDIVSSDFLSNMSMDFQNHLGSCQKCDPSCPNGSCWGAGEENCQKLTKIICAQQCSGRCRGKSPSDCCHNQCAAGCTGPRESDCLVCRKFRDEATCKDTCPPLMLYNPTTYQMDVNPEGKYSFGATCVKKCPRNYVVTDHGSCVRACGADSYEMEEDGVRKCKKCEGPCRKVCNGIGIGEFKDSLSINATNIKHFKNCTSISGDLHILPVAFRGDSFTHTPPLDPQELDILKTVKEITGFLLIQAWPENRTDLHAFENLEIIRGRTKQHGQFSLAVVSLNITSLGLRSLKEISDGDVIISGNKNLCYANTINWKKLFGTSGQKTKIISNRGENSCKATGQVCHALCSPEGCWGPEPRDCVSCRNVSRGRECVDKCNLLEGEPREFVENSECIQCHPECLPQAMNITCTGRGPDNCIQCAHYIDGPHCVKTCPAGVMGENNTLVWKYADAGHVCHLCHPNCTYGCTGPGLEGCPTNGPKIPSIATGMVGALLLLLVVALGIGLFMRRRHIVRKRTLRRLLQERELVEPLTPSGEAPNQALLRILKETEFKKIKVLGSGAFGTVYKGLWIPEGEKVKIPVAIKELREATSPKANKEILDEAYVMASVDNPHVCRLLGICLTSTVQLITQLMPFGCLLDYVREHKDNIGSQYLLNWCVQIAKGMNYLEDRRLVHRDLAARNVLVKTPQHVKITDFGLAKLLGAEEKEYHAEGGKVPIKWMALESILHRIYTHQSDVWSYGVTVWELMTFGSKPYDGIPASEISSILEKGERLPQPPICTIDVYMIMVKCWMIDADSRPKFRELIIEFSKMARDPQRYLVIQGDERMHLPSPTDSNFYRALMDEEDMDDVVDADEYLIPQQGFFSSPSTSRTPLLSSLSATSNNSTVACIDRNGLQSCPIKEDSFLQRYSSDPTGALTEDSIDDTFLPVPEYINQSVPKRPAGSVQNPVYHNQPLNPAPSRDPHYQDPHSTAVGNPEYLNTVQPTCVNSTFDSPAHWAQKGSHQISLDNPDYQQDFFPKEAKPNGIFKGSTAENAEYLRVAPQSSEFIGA
Method: as §1

HPK1 = target: T30, HPK1 (Homo sapiens, UniProt Q92918)
T30 construct: purchased Eurofins Discovery (DiscoverX KINOMEscan scanMAX)
Method: as §1

ULK3 = target: T31, ULK3 (Homo sapiens, UniProt Q6PHR2)
T31 construct: purchased Eurofins Discovery (DiscoverX KINOMEscan scanMAX)
T31 sequence (Q6PHR2 whole entry): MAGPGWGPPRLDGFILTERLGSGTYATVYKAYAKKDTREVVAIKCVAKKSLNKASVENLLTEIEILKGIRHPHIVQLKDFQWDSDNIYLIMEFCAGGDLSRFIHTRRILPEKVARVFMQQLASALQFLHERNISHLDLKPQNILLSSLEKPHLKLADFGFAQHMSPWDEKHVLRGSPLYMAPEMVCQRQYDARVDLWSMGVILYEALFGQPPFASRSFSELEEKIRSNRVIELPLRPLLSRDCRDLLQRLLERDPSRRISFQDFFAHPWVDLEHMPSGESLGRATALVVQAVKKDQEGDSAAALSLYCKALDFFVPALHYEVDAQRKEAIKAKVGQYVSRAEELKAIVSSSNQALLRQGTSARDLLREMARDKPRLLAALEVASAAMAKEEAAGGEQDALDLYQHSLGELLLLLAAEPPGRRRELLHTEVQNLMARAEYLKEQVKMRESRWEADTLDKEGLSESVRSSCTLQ
Method: as §1

TAOK3 = target: T32, TAOK3 (Homo sapiens, UniProt Q9H2K8)
T32 construct: purchased Eurofins Discovery (DiscoverX KINOMEscan scanMAX)
Method: as §1

**Q.** How did the remaining binding at 0.1 µM (GSK3B; 100 nM) turn out when `Cc1cc(Nc2ccc(F)c(CC3(C(=O)N4CCC(F)(CN5CCN(c6ccc(N7CCC(=O)NC7=O)cn6)CC5)CC4)CCN(Cc4cccc(Cl)c4F)CC3)n2)n[nH]1` [SK5527] was run?
**A.** 82%

**Q.** And the remaining binding at 1 µM (GSK3B; 1000 nM)?
**A.** 78%

**Q.** What about the remaining binding at 0.1 µM (FLT3-autoinhibited; 100 nM) of the same compound?
**A.** 96%

**Q.** And the remaining binding at 1 µM (FLT3-autoinhibited; 1000 nM)?
**A.** 68%

**Q.** And the remaining binding at 0.1 µM (BMPR2; 100 nM)?
**A.** 98%

**Q.** What about the remaining binding at 1 µM (BMPR2; 1000 nM) of the same compound?
**A.** 50%

**Q.** And the remaining binding at 0.1 µM (GRK4; 100 nM)?
**A.** 96%

**Q.** And the remaining binding at 1 µM (GRK4; 1000 nM)?
**A.** 100%

**Q.** And the remaining binding at 0.1 µM ([1]; 100 nM)?
**A.** 79%

**Q.** What about the remaining binding at 1 µM ([1]; 1000 nM) of the same compound?
**A.** 81%

**Q.** What about the remaining binding at 0.1 µM ([2]; 100 nM) of the same compound?
**A.** 95%

**Q.** And the remaining binding at 1 µM ([2]; 1000 nM)?
**A.** 69%

**Q.** And the remaining binding at 0.1 µM (SIK2; 100 nM)?
**A.** 100%

**Q.** What about the remaining binding at 1 µM (SIK2; 1000 nM) of the same compound?
**A.** 93%

**Q.** And the remaining binding at 0.1 µM (TNK1; 100 nM)?
**A.** 66%

**Q.** And the remaining binding at 1 µM (TNK1; 1000 nM)?
**A.** 44%

**Q.** What about the remaining binding at 0.1 µM (WEE2; 100 nM) of the same compound?
**A.** 79%

**Q.** What about the remaining binding at 1 µM (WEE2; 1000 nM) of the same compound?
**A.** 88%

**Q.** What about the remaining binding at 0.1 µM (ERBB2; 100 nM) of the same compound?
**A.** 100%

**Q.** And the remaining binding at 1 µM (ERBB2; 1000 nM)?
**A.** 100%

**Q.** And the remaining binding at 0.1 µM ([3]; 100 nM)?
**A.** 100%

**Q.** What about the remaining binding at 1 µM ([3]; 1000 nM) of the same compound?
**A.** 96%

**Q.** And the remaining binding at 0.1 µM (EGFR(L858R); 100 nM)?
**A.** 97%

**Q.** What about the remaining binding at 1 µM (EGFR(L858R); 1000 nM) of the same compound?
**A.** 83%

**Q.** What about the remaining binding at 0.1 µM (JNK2; 100 nM) of the same compound?
**A.** 67%

**Q.** And the remaining binding at 1 µM (JNK2; 1000 nM)?
**A.** 74%

**Q.** What about the remaining binding at 0.1 µM (NIM1; 100 nM) of the same compound?
**A.** 58%

**Q.** And the remaining binding at 1 µM (NIM1; 1000 nM)?
**A.** 76%

**Q.** And the remaining binding at 0.1 µM ([4]; 100 nM)?
**A.** 51%

**Q.** And the remaining binding at 1 µM ([4]; 1000 nM)?
**A.** 51%

**Q.** And the remaining binding at 0.1 µM (RIPK1; 100 nM)?
**A.** 100%

**Q.** What about the remaining binding at 1 µM (RIPK1; 1000 nM) of the same compound?
**A.** 86%

**Q.** What about the remaining binding at 0.1 µM (HIPK4; 100 nM) of the same compound?
**A.** 85%

**Q.** And the remaining binding at 1 µM (HIPK4; 1000 nM)?
**A.** 81%

**Q.** What about the remaining binding at 0.1 µM (PAK2; 100 nM) of the same compound?
**A.** 100%

**Q.** What about the remaining binding at 1 µM (PAK2; 1000 nM) of the same compound?
**A.** 79%

**Q.** And the remaining binding at 0.1 µM (CDK5; 100 nM)?
**A.** 100%

**Q.** And the remaining binding at 1 µM (CDK5; 1000 nM)?
**A.** 100%

**Q.** What about the remaining binding at 0.1 µM (p38-delta; 100 nM) of the same compound?
**A.** 100%

**Q.** What about the remaining binding at 1 µM (p38-delta; 1000 nM) of the same compound?
**A.** 100%

**Q.** What about the remaining binding at 0.1 µM (FGFR3; 100 nM) of the same compound?
**A.** 96%

**Q.** And the remaining binding at 1 µM (FGFR3; 1000 nM)?
**A.** 84%

**Q.** And the remaining binding at 0.1 µM (EGFR(G719C); 100 nM)?
**A.** 87%

**Q.** What about the remaining binding at 1 µM (EGFR(G719C); 1000 nM) of the same compound?
**A.** 94%

**Q.** And the remaining binding at 0.1 µM (LOK; 100 nM)?
**A.** 100%

**Q.** And the remaining binding at 1 µM (LOK; 1000 nM)?
**A.** 100%

**Q.** What about the remaining binding at 0.1 µM (EGFR(S752-I759del); 100 nM) of the same compound?
**A.** 98%

**Q.** What about the remaining binding at 1 µM (EGFR(S752-I759del); 1000 nM) of the same compound?
**A.** 100%

**Q.** What about the remaining binding at 0.1 µM (PRKD2; 100 nM) of the same compound?
**A.** 78%

**Q.** What about the remaining binding at 1 µM (PRKD2; 1000 nM) of the same compound?
**A.** 90%

**Q.** What about the remaining binding at 0.1 µM (MERTK; 100 nM) of the same compound?
**A.** 90%

**Q.** And the remaining binding at 1 µM (MERTK; 1000 nM)?
**A.** 54%

**Q.** What about the remaining binding at 0.1 µM ([5]; 100 nM) of the same compound?
**A.** 88%

**Q.** And the remaining binding at 1 µM ([5]; 1000 nM)?
**A.** 62%

**Q.** And the remaining binding at 0.1 µM (ROCK2; 100 nM)?
**A.** 100%

**Q.** And the remaining binding at 1 µM (ROCK2; 1000 nM)?
**A.** 45%

**Q.** What about the remaining binding at 0.1 µM (EGFR; 100 nM) of the same compound?
**A.** 91%

**Q.** What about the remaining binding at 1 µM (EGFR; 1000 nM) of the same compound?
**A.** 82%

**Q.** What about the remaining binding at 0.1 µM (HPK1; 100 nM) of the same compound?
**A.** 100%

**Q.** And the remaining binding at 1 µM (HPK1; 1000 nM)?
**A.** 100%

**Q.** What about the remaining binding at 0.1 µM (ULK3; 100 nM) of the same compound?
**A.** 85%

**Q.** And the remaining binding at 1 µM (ULK3; 1000 nM)?
**A.** 86%

**Q.** And the remaining binding at 0.1 µM (TAOK3; 100 nM)?
**A.** 100%

**Q.** And the remaining binding at 1 µM (TAOK3; 1000 nM)?
**A.** 100%
